Read-outs that look alike come from different tables or passages of the source.
System: HCV 1b genotype
Test: HCV replicon assay (HCV-neo replicon cells, wild-type)
Format: cell-based, Hepatitis C virus
Conditions: HCV 1b genotype replicon
How it was run: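 HCV-neo replicon cells (wild-type) and replicon cells carrying NS5A resistance substitutions were treated with compounds; assay per O'Boyle et al. 2005, with luciferase-reporter read-out variants also used.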

[1] = Hepatitis C virus, class symbol, read-out: EC50 Range against HCV 1b
[2] = Hepatitis C virus, class symbols, read-out: EC50 Range against HCV 1b
[3] = Hepatitis C virus, read-out: EC50 1b

SMILES	EC50 [1] [nM]	further results
O=C(C(=O)N1CCC[C@H]1C(=O)Nc1ccc(-c2cnc(-c3ccc(NC(=O)[C@@H]4CCCN4C(=O)C(=O)c4ccccc4)cc3)o2)cc1)c1ccccc1 [JG-27, (2S,2′S)-N,N′-(1,3-oxazole-2,5-diyldi-4,1-phenylene)bis(1-(oxo(phenyl)acetyl)-2-pyrrolidinecarboxamide)]	4.57 to 99	
CN(C)[C@@H](C(=O)N1CC[C@@H](NC(=O)Nc2ccc(-c3cnc(-c4ccc(NC(=O)N[C@@H]5CCN(C(=O)[C@@H](c6ccccc6)N(C)C)C5)cc4)o3)cc2)C1)c1ccccc1 [FY-8, N′,N′″-(1,3-oxazole-2,5-diyldi-4,1-phenylene)bis(1-((3R)-1-((2R)-2-(dimethylamino)-2-phenylacetyl)-3-pyrrolidinyl)urea)]	100 to 999	
O=C(Nc1ccc(-c2nnc(-c3ccc(NC(=O)[C@@H]4CCCN4C(=O)c4ccc5ccccc5n4)cc3)o2)cc1)[C@@H]1CCCN1C(=O)c1ccc2ccccc2n1 [RK-10, (2S,2′S)-N,N′-(1,3,4-oxadiazole-2,5-diyldi-4,1-phenylene)bis(1-(2-quinolinylcarbonyl)-2-pyrrolidinecarboxamide)]	1000 to 10000	
O=C(Nc1ccc(-c2cnc(-c3ccc(NC(=O)[C@@H]4CCCN4C(=O)C4CCCCN4Cc4ccccc4)cc3)o2)cc1)[C@@H]1CCCN1C(=O)C1CCCCN1Cc1ccccc1 (stereo partly drawn) [Example D-21, (2S,2′S)-N,N′-(1,3-oxazole-2,5-diyldi-4,1-phenylene)bis(1-((1-benzyl-2-piperidinyl)carbonyl)-2-pyrrolidinecarboxamide)]	1000 to 10000	
CC(C)(C)O[C@@H]1C[C@@H](C(=O)Nc2ccc(-c3cnc(-c4ccc(NC(=O)[C@@H]5C[C@@H](OC(C)(C)C)CN5C(=O)C5CCC5)cc4)o3)cc2)N(C(=O)C2CCC2)C1 [XY-64, (2S,4R,2′S,4′R)-N,N′-(1,3-oxazole-2,5-diyldi-4,1-phenylene)bis(4-tert-butoxy-1-(cyclobutylcarbonyl)-2-pyrrolidinecarboxamide)]		EC50 [2]: 1000 to 10000 nM
CC(=O)N1CCC[C@H]1C(=O)Nc1ccc(-c2cnc(-c3ccc(NC(=O)C4CCN(C(=O)OCc5ccccc5)C4)cc3)o2)cc1 (stereo partly drawn) [MS-4, benzyl 3-((4-(5-(4-((1-acetyl-L-prolyl)amino)phenyl)-1,3-oxazol-2-yl)phenyl)carbamoyl)-1-pyrrolidinecarboxylate]	100 to 999	EC50 [3]: 901 nM
Cn1cc(C(=O)N2CCC[C@H]2C(=O)Nc2ccc(-c3nnc(-c4ccc(NC(=O)[C@@H]5CCCN5C(=O)c5cn(C)c6ccccc56)cc4)o3)cc2)c2ccccc21 [RK-42, (2S,2′S)-N,N′-(1,3,4-oxadiazole-2,5-diyldi-4,1-phenylene)bis(1-((1-methyl-1H-indol-3-yl)carbonyl)-2-pyrrolidinecarboxamide)]		EC50 [2]: 1000 to 10000 nM
C[C@H](NC(=O)[C@@](C)(O)c1ccccc1)C(=O)Nc1ccc(-c2nnc(-c3ccc(NC(=O)[C@H](C)NC(=O)[C@@](C)(O)c4ccccc4)cc3)o2)cc1 [RK-30, (2S,2′S)-N,N′-(1,3,4-oxadiazole-2,5-diylbis(4,1-phenyleneimino((2S)-1-oxo-1,2-propanediyl)))bis(2-hydroxy-2-phenylpropanamide)]	100 to 999	
O=C(Nc1ccc(-c2cnc(-c3ccc(NC(=O)[C@@H]4CCCN4C(=O)C(O)Cc4cccnc4)cc3)o2)cc1)[C@@H]1CCCN1C(=O)C(O)Cc1cccnc1 (stereo partly drawn) [JR-4, (2S,2′S)-N,N′-(2,5-oxazolediyldi-4,1-phenylene)bis[1-[2-hydroxy-1-oxo-3-(3-pyridinyl)propyl]-2-pyrrolidinecarboxamide]]		EC50 [2]: 1000 to 10000 nM
COc1ccccc1CC(=O)N1CCC[C@H]1C(=O)Nc1ccc(-c2cnc(-c3ccc(NC(=O)[C@@H]4CCCN4C(=O)Cc4ccccc4OC)cc3)o2)cc1 [XY-35, (2S,2′S)-N,N′-(1,3-oxazole-2,5-diyldi-4,1-phenylene)bis(1-((2-methoxyphenyl)acetyl)-2-pyrrolidinecarboxamide)]		EC50 [2]: 100 to 999 nM
COc1cccc2c(C(=O)N3CCC[C@H]3C(=O)Nc3ccc(-c4ccc(-c5ccc(NC(=O)[C@@H]6CCCN6C(=O)[C@H](O)c6ccccc6)cc5)o4)cc3)nc(Cl)cc12 [JG-64, (2S)-1-((3-chloro-5-methoxy-1-isoquinolinyl)carbonyl)-N-(4-(5-(4-((((2S)-1-((2R)-2-hydroxy-2-phenylacetyl)-2-pyrrolidinyl)carbonyl)amino)phenyl)-2-furyl)phenyl)-2-pyrrolidinecarboxamide]	4.57 to 99	
O=C(Nc1ccc(-c2nnc(-c3ccc(NC(=O)[C@@H]4CCCN4C(=O)CC4CC4)cc3)o2)cc1)[C@@H]1CCCN1C(=O)CC1CC1 [Example D-57, (2S,2′S)-N,N′-(1,3,4-oxadiazole-2,5-diyldi-4,1-phenylene)bis[1-(cyclopropylacetyl)-2-pyrrolidinecarboxamide]]	1000 to 10000	EC50 [3]: 1950 nM
CC(=O)N[C@@H](C(=O)N1[C@H](C(=O)Nc2ccc(-c3cnc(-c4ccc(NC(=O)[C@@H]5C[C@@H]6C[C@@H]6N5C(=O)[C@H](NC(C)=O)c5ccccc5)cc4)o3)cc2)C[C@@H]2C[C@@H]21)c1ccccc1	4.57 to 99	EC50 [3]: < 5 nM
CC(C)(C)OC[C@H](NC(=O)Cc1ccccc1)C(=O)Nc1ccc(-c2cnc(-c3ccc(NC(=O)[C@H](COC(C)(C)C)NC(=O)Cc4ccccc4)cc3)o2)cc1 [JG-16, (2S,2′S)-N,N′-(1,3-oxazole-2,5-diyldi-4,1-phenylene)bis(3-tert-butoxy-2-((phenylacetyl)amino)propanamide)]	100 to 999	
O=C(C(=O)N1CCC[C@H]1C(=O)Nc1ccc(-c2nc[nH]c2-c2ccc(NC(=O)[C@@H]3CCCN3C(=O)C(=O)c3ccccc3)cc2)cc1)c1ccccc1 [JG-42, (2S,2′S)-N,N′-(1H-imidazole-4,5-diyldi-4,1-phenylene)bis(1-(oxo(phenyl)acetyl)-2-pyrrolidinecarboxamide)]	< 4.57	
CSC[C@H](NC(=O)Cc1ccccc1)C(=O)Nc1ccc(-c2cnc(-c3ccc(NC(=O)[C@H](CSC)NC(=O)Cc4ccccc4)cc3)o2)cc1 [JG-14, (2R,2′R)-N,N′-(1,3-oxazole-2,5-diyldi-4,1-phenylene)bis(3-(methylsulfanyl)-2-((phenylacetyl)amino)propanamide)]	100 to 999	
CO[C@H]1C[C@@H](C(=O)Nc2ccc(-c3cnc(-c4ccc(NC(=O)[C@@H]5C[C@H](OC)CN5C(=O)C(NC(C)=O)c5ccccc5)cc4)o3)cc2)N(C(=O)C(NC(C)=O)c2ccccc2)C1 (stereo partly drawn) [OL-60, (2S,4S,2′S,4′S)-N,N′-(1,3-oxazole-2,5-diyldi-4,1-phenylene)bis(1-(acetamido(phenyl)acetyl)-4-methoxy-2-pyrrolidinecarboxamide)]	4.57 to 99	
CC(C)(C)O[C@@H]1C[C@@H](C(=O)Nc2ccc(-c3cnc(-c4ccc(NC(=O)[C@@H]5C[C@@H](OC(C)(C)C)CN5C(=O)C5CCCCC5)cc4)o3)cc2)N(C(=O)C2CCCCC2)C1 [XY-66, (2S,4R,2′S,4′R)-N,N′-(1,3-oxazole-2,5-diyldi-4,1-phenylene)bis(4-tert-butoxy-1-(cyclohexylcarbonyl)-2-pyrrolidinecarboxamide)]		EC50 [2]: 1000 to 10000 nM
CC(=O)N1CCC[C@H]1C(=O)Nc1ccc(-c2nc(-c3ccc(NC(=O)[C@@H]4CCCN4C(=O)Cc4ccccc4)cc3)cs2)cc1 [Example D-45, (2S)-1-acetyl-N-(4-(4-(4-((((2S)-1-(phenylacetyl)-2-pyrrolidinyl)carbonyl)amino)phenyl)-1,3-thiazol-2-yl)phenyl)-2-pyrrolidinecarboxamide]	100 to 999	
Cc1nc(-c2ccc(NC(=O)[C@H](C)NC(=O)OCc3ccccc3)cc2)c(-c2ccc(NC(=O)[C@H](C)NC(=O)OCc3ccccc3)cc2)o1 [OL-4, [(2-methyl-4,5-oxazolediyl)bis[4,1-phenyleneimino[(1S)-1-methyl-2-oxo-2,1-ethanediyl]]]bis-carbamic acid, bis(phenylmethyl) ester]	100 to 999	EC50 [3]: 220 nM
CC(C)(C)O[C@@H]1C[C@@H](C(=O)Nc2ccc(-c3cnc(-c4ccc(NC(=O)[C@@H]5C[C@@H](OC(C)(C)C)CN5C(=O)Cc5ccccn5)cc4)o3)cc2)N(C(=O)Cc2ccccn2)C1 [XY-75, (2S,4R,2′S,4′R)-N,N′-(1,3-oxazole-2,5-diyldi-4,1-phenylene)bis(4-tert-butoxy-1-(2-pyridinylacetyl)-2-pyrrolidinecarboxamide)]		EC50 (class symbols, read-out: EC50 Range against HCV 1b): 4.57 to 99 nM
CN(C)Cc1nc(-c2ccc(NC(=O)[C@@H]3CCCN3C(=O)Cc3ccccc3)cc2)c(-c2ccc(NC(=O)[C@@H]3CCCN3C(=O)Cc3ccccc3)cc2)o1 [OL-6]	1000 to 10000	
CC(=O)N1CCC[C@H]1C(=O)Nc1ccc(-c2cnc(-c3ccc(NC(=O)[C@@H]4C=CCN4C(=O)c4ccno4)cc3)o2)cc1 [Example D-3, (2S)-N-[4-[5-[4-[[[(2S)-1-acetyl-2-pyrrolidinyl]carbonyl]amino]phenyl]-2-oxazolyl]phenyl]-2,5-dihydro-1-(5-isoxazolylcarbonyl)-1H-pyrrole-2-carboxamide]	1000 to 10000	
CC(=O)N1CCC[C@H]1C(=O)Nc1ccc(-c2nc(-c3ccc(NC(=O)[C@@H]4C=CCN4C(=O)c4ccno4)cc3)cs2)cc1 [Example D-50, (2S)-N-[4-[2-[4-[[[(2S)-1-acetyl-2-pyrrolidinyl]carbonyl]amino]phenyl]-4-thiazolyl]phenyl]-2,5-dihydro-1-(5-isoxazolylcarbonyl)-1H-pyrrole-2-carboxamide]	100 to 999	
C[C@](O)(C(=O)N1CCC[C@H]1C(=O)Nc1ccc(-c2nc[nH]c2-c2ccc(NC(=O)[C@@H]3CCCN3C(=O)[C@](C)(O)c3ccccc3)cc2)cc1)c1ccccc1 [JG-47, (2S,2′S)-N,N′-(1H-imidazole-4,5-diyldi-4,1-phenylene)bis(1-((2R)-2-hydroxy-2-phenylpropanoyl)-2-pyrrolidinecarboxamide)]	4.57 to 99	
O=C(Nc1ccc(-c2nncn2-c2ccc(NC(=O)[C@@H]3CCCN3C(=O)OCc3ccccc3)cc2)cc1)[C@@H]1CCCN1C(=O)OCc1ccccc1 [OL-14, (2S,2′S)-2,2′-[4H-1,2,4-triazole-3,4-diylbis(4,1-phenyleneiminocarbonyl)]bis-1-pyrrolidinecarboxylic acid, bis(phenylmethyl) ester]	1000 to 10000	

Reference: US8735398B2 (Bristol-Myers Squibb Company, priority 2009, dated 2014)
